Entries after “also recorded” stand apart in the source; their conditions may differ.
What was measured:
S. glaucescens = experiment: Principal component analysis of secondary metabolites of S. glaucescens small scale fermentations with GBLs; format: cell-based; settings: for induction of secondary metabolite production: S. glaucescens fermented in SMM medium, LC-MS data, versus untreated control (FIG. 17)
Protocol: S. glaucescens cells were grown in 3 mL cultures under 96 different conditions of medium, GBL choice, and GBL concentration. Each GBL solution was added to a tube in each of the following concentrations: 0.2 μM, 0.8 μM, 4 μM, 20 μM, and 100 μM. Media were a minimal medium SMM or a yeast enriched complex medium R5 (also called R2YE). The GBL indicated in FIG. 17 as PR001 and PR002 are shown in FIG. 16, and have the chemical formulae, respectively: 3-(1-hydroxyethyl)-4-(hydroxymethyl)dihydrofuran-2(3H)-one; and, 3-(1-hydroxyheptyl)-4-(hydroxymethyl)dihydrofuran-2(3H)-one.
Fermentations were incubated in 24-well blocks (CR 424, Enzyscreen B.V., Netherlands) with lids (1221a), and were shaken at 200 rpm for 5 days at 28° C. in an Infors HT incubator (Infors AG, Switzerland). For analysis, a C18 SPE-IT tip (57234-U from Sigma-Aldrich) was added to each fermentation which were further shaken at 400 rpm for one hour. Tips were removed and rinsed in deionized water, and were analyzed directly or stored for analysis. Analysis was collected at ionsense, Inc. (Saugus, Mass.) vaporized with a DART source at 400 C and 1 mm/s, and mass spectral data collected in a Thermo LTQ. Analysis used Progenesis QI from Nonlinear Dynamics (Waters).
Principal component analysis data of secondary metabolites induced by the GBLs in comparison to control absent GBL are shown in FIG. 17. […] Accordingly, 100 μM GBL was used in large scale fermentions.

S. coelicolor [1] = experiment: Large scale S. coelicolor fermentation with GBL, extract fractionation and LC-MS identification of induced secondary metabolites; format: cell-based, Streptomyces coelicolor; settings: S. coelicolor 300 mL cultures in SMM, 100 μM GBL; for Desferrioxamine B production / Desferrioxamine E production / streptorubin B production / undecylprodigiosin production: 5 days; for Desferrioxamine B production: fraction 28, peak at 1.81, versus untreated control; for Desferrioxamine E production: fraction 28, peak at 2.09, versus untreated control; for streptorubin B production: fraction 41, peak at 3.6, versus untreated control; for undecylprodigiosin production: fraction 41, peak at 3.8, versus untreated control
Protocol: Yields of both known and unknown bioactive compounds regulated by the presence of signaling hormones are improved by contacting producing cells with an appropriate GBL. Secondary metabolites were isolated from cultures of cells. Triplicate 300 mL cultures of S. coelicolor in SMM, was treated with the synthetic racemic mixture of VB-D and seven enantiomers of the non-cognate GBL shown in FIG. 10, at a total concentration of 100 μM, and an identical culture was grown without GBL. Cells were grown for five days at 29 C shaking at 220 rpm. Triplicates were pooled with GBL-treated and control cultures pooled separately.
A slurry of absorbent resins HP-20, XAD-16, XAD-7 and XAD-4 was added (2-4% weight/volume) and shaking was continued overnight. The resin and cell mass were removed by filtration and were washed three times with 200 mL deionized water. Resin and cell mass were extracted three times with 100-300 mL methanol to elute secondary metabolites from the resin. This extract was concentrated by rotary evaporation to remove extraction solvent.
The crude extract was dissolved in 1-3 mL of dimethylsulfoxide (DMSO) and was injected into a reveleris C18 reverse phase column on a Gilson High-Pressure Liquid Chromatography system. A flow rate of 15 ml/min was run for 40 minutes using mobile phases of methanol with 0.1% formic acid, and water with 0.1% formic acid. Forty-eight fractions were collected from a twenty minutes gradient of solvent from 15% methanol to 95% methanol, and were analyzed for antibacterial content on soft agar lawns of each of a Gram negative indicator strain, Escherichia coli, and a Gram positive indicator strain, Bacillus subtilis.
Further, 10 μL fraction volumes of each fraction were injected into a Waters Xevo G2-S Q-TOF LCMS system for further analytical separation and mass identification.
Fraction 28 of each of the GBL and the control extracts were each analyzed by LC-MS-TOF.
Fraction 41 of each of the GBL and the control extracts were each analyzed by LC-MS-TOF. […] Fraction 41 was subjected to UV chromatogram of diode array HPLC detector analysis. Again at prominent peak at 3.83 was observed. This material was determined to be undecylprodigiosin by mass chromatogram shown in FIG. 25, which has an observed mass of 393.27 and a calculated mass of 394.25.

S. coelicolor [2] = experiment: Induction of pigmented antibiotic (actinorhodin) production in S. coelicolor plate cultures spotted with GBLs; format: cell-based, Streptomyces coelicolor; settings: for antibiotic production (dark spot): S. coelicolor SMMS plates spotted with 1-100 μg racemic mixture of I-VII and VB-D at inoculation, observed after 42 hours; for dose dependence of antibiotic production (diameter of dark spot): amount of GBL mixture I-VII and VB-D 1-100 μg; for production of pigmented antibiotics (actinorhodin): S. coelicolor on SMMS plates, 2 μL spot with 16.5-165 μg racemic GBLs X and XI at inoculation, versus control plates without GBL
Protocol: The formulas I-VII in FIG. 10 illustrate the structures of the enantiomers in the mixture of GBLs tested for ability to elicit antibiotic production, the results of which are shown in the plates in FIG. 9. […] The mixture of GBLs was added to a pure culture of non-cognate microorganism S. coelicolor. Streptomycete strains were cultured in complex medium R5 or in minimal medium MMS. See Kieser, T. et al., Practical Streptomyces Genetics, John Innes Institute, 2000.
Spore stock of S. coelicolor was used to inoculate SMMS agar (solid SMM medium) and the spore suspension on the surfaces of the plates was allowed to dry. The GBL amounts were added at the time of inoculation.
The two plates in the top of the photograph of FIG. 9 are controls cultures of S. coelicolor. The control plate on the left is a negative control in which no GBL nor vehicle was added. The control plate on the right was contacted with the vehicle only, which was a mixture of methanol and water.
A racemic mixture of GBLs containing the non-naturally occurring compounds 1-VII and virginiae butenolide-D (VB-D) was synthesized, and an amount of about 500 μg was dissolved in 100 μL of vehicle to yield a 5 mg/ml concentration solution. The plates of the second row from left to right were spotted with 20 μL (100 μg), 10 μL (50 μg), 5 μL (25 μg), and […] of the 10 mg/ml concentration solution, respectively. […] The fifth plate of the third row was spotted with 2 μL (1 μg) of a 1:10 dilution of the 10 mg/ml concentration solution.
FIG. 12 is a photograph of SMMS (supplemented minimal media solid) plates inoculated with a spore stock of S. coelicolor streaked to cover the surface of the medium in the plate. At the time of inoculation, 2 μL of a racemic solution containing each amount of a dilution of the racemic GBLs having formulas X and XI were deposited in the center of a plate. Plate 1a was spotted with 2 μL of a solution containing 16.5 μg of GBLs X and XI. Plates 2a and 2b were spotted with 2 μL of a solution containing 33 μg of GBLs X and XI. Plate 3a was spotted with a solution containing 49.5 μg of GBLs X and XI. Plates 4a and 4b were spotted with a solution containing 66 μg of GBLs X and XI. Plates 5a, 6a, 7a, were spotted with solutions containing 99 μg, 132 μg, and 165 μg of GBLs X and XI, respectively. Racemic mixture GBLs were present in equal molar amounts. […] No pigment production was observed on the control plates shown in FIG. 7 not contacted with GBLs.

[3] = listed as synthetic non-cognate GBL

## CCCCCCC(O)C1C(=O)OCC1CO (single isomer, unassigned) [3-(1-hydroxyheptyl)-4-(hydroxymethyl)dihydrofuran-2(3H)-one]
S. glaucescens
  induction of secondary metabolite production: induction of secondary metabolite production
S. coelicolor [1]
  Desferrioxamine B production: induced
  Desferrioxamine E production: induced
  streptorubin B production: induced
  undecylprodigiosin production: induced
S. coelicolor [1]; [3]
  Desferrioxamine B production: substantially enhanced or even induced
  Desferrioxamine E production: substantially enhanced or even induced
  streptorubin B production: substantially enhanced or even induced
  undecylprodigiosin production: substantially enhanced or even induced
S. coelicolor [1]; fraction 28, versus untreated control
  production of unknown compound (peak at 1.84): induced
S. coelicolor [2]; listed as VB-D and seven enantiomer GBLs thereof having the formulas I-VII
  antibiotic production (dark spot): production of the blue antibiotic, actinorhodin, and red prodiginies
S. coelicolor [2]; listed as compounds 1-VII and virginiae butenolide-D (VB-D)
  antibiotic production (dark spot): produced antibiotic
S. coelicolor [2]; listed as mixture of GBLs
  antibiotic production (dark spot): production of an antibacterial activity was elicited
S. coelicolor [2]; S. coelicolor SMMS plates with racemic mixture of I-VII and VB-D, after 24 hours
  antibiotic production: No antibiotic production was observed
S. coelicolor [2]; S. coelicolor plates, listed as VB-D and seven enantiomer GBLs thereof having the formulas I-VII
  dose dependence of antibiotic production (diameter of dark spot): monotonic dose-dependent response
S. coelicolor [2]; S. coelicolor plates, listed as compounds 1-VII and virginiae butenolide-D (VB-D)
  dose dependence of antibiotic production (diameter of dark spot): dose-dependent monotonically

## CC(O)C1C(=O)OCC1CO (stereo not drawn) [3-(1-hydroxyethyl)-4-(hydroxymethyl)dihydrofuran-2(3H)-one]
S. glaucescens; S. glaucescens 3 mL cultures, 5 days, 0.2-100 μM GBL
  distinction from control secondary metabolites produced absent GBL (principal component analysis): greatest distinction from control
S. glaucescens
  induction of secondary metabolite production: induction of secondary metabolite production
S. glaucescens; S. glaucescens, GBL 0.2, 0.8, 4, 20, 100 μM
  dose dependence of induction of secondary metabolites: in a dose-dependent manner
S. glaucescens; S. glaucescens, principal component analysis
  concentration of maximal distinction from control: 100 µM

## CCCCCCC(=O)C1C(=O)OCC1CO (stereo not drawn) [GBLs X and XI]
S. coelicolor [2]; S. coelicolor SMMS plates contacted with racemic GBLs X and XI
  time of induction of production of the pigmented antibiotics: early induction
S. coelicolor [2]
  production of pigmented antibiotics (actinorhodin): pigmented antibiotic is produced only in response to treatment; also recorded: increased production of pigmented antibiotics
S. coelicolor [2]; listed as X and XI
  production of pigmented antibiotics (actinorhodin): production of the purple antibiotic, actinorhodin
S. coelicolor [2]; S. coelicolor plates, increasing amount of GBLs X and XI (FIG. 3)
  dose dependence of antibiotic production: dose-dependent increase in antibiotic production

— US11447742B2, “Compositions and methods for activation and overexpression of secondary metabolites in microorganisms” (Prospective Research, Inc., priority 2016, dated 2022)
